Here are results for 18 compounds from US20250282749A1 (Tango Therapeutics, Inc., priority 2022, published 2025).

The IC50 is the concentration at which inhibition is half-maximal. One may read the IC90 as the concentration at which the effect reaches the 90% level.

Common to all, as to assay type: cell-based
Experiment [1] concerns HAP1 MTAP-deleted cell line. As to the kind of experiment: viability assay for the MTAP-deleted cell line. To be noted: Homo sapiens.
For experiment [2], the system named is PRMT5 (SDMA) in HAP1 MTAP-deleted cell line. The experiment in a line: SDMA in-cell western assay, HAP1 MTAP-deleted cell line. The following applies: for IC50 / IC90: Homo sapiens, SDMA in-cell western, HAP1 MTAP-deleted (MTAP-null) cell line; for Hap1 MTAP intact/deleted ratio: ratio of SDMA in-cell western IC50 in HAP1 MTAP-intact to IC50 in HAP1 MTAP-deleted cell line. The text has this:
(§1) HAP1 MTAP-intact is a cell line in which endogenous levels of MTAP are expressed, and HAP1 MTAP-deleted is an MTAP-null cell line.

In experiment [3] the test system is PRMT5 (SDMA) in HAP1 MTAP-intact cell line. As to the kind of experiment: SDMA in-cell western assay, HAP1 MTAP-intact cell line. To be noted: Homo sapiens, HAP1 MTAP-intact cell line (endogenous MTAP), read-out: Hap 1 MTAP intact IC50.
Text: as §1

The structures appear in SMILES notation. Where only a bound is given, the exact number is not on record here.

Consider `Cc1cc(NC(=O)C(=O)N2C[C@@H](C)N(C(=O)C3(C(F)(F)F)CC3)C[C@@H]2c2ccc(Cl)cc2)cnc1N` [Compound 131, N-(6-amino-5-methylpyridin-3-yl)-2-((5R)-2-(4-chlorophenyl)-5-methyl-4-(1-(trifluoromethyl)cyclopropanecarbonyl)piperazin-1-yl)-2-oxoacetamide], for which the IC50 in experiment [1] was in the range of 100 to 1000 nM. Also, in experiment [2], the half-inhibitory concentration (IC50) was less than 5 nM, the IC90 was 75 to 125 nM and the “Hap1 MTAP intact/deleted ratio” value is recorded as “C (an IC50 ratio of less than 15 fold)”. Besides, in experiment [3], the IC50 was more than 50 nM.
In experiment [1], `Cc1cc(NC(=O)C(=O)N2C[C@@H](C)N(C(=O)C3(C)CC3)C[C@@H]2c2ccccc2)cnc1N` [Compound 143, N-(6-amino-5-methylpyridin-3-yl)-2-((2S,5R)-5-methyl-4-(1-methylcyclopropanecarbonyl)-2-phenylpiperazin-1-yl)-2-oxoacetamide] had an IC50 of less than 100 nM. In addition, in experiment [2], the IC50 fell in the range of 5 to 50 nM, the concentration for an effect of 90% (IC90) was more than 125 nM and the “Hap1 MTAP intact/deleted ratio” value is listed as “C (an IC50 ratio of less than 15 fold)”. In addition, the IC50 in experiment [3] was more than 50 nM.
For the compound `COc1ncc(NC(=O)C(=O)N2C[C@@H](C)N(C(=O)C(C)(C)CN(C)C)C[C@@H]2c2ccccc2)cc1C(N)=O` [Compound 69], the IC50 in experiment [1] fell in the range of 100 to 1000 nM. For the same compound, in experiment [2], the IC50 was 5 to 50 nM, the concentration for an effect of 90% (IC90) was more than 125 nM and the “Hap1 MTAP intact/deleted ratio” value is “A (an IC50 ratio greater than or equal to 30 fold)”. The half-maximal inhibitory concentration (IC50) in experiment [3] is more than 50 nM.
In the same order, the values of `C[C@@H]1CN(C(=O)C(=O)Nc2cnc(N)c(C3CC3)c2)[C@@H](c2ccc(F)c(F)c2)CN1C(=O)C1(C(F)(F)F)CC1` [Compound 22] are less than 100 nM, 5 to 50 nM, 75 to 125 nM, “B (an IC50 ratio greater than or equal to 15 fold but lower than 30 fold)” and more than 50 nM.
Consider `C[C@@H]1CN(C(=O)C(=O)Nc2cnc(N)c3cn[nH]c23)[C@@H](c2ccccc2)CN1C1CCC1` (racemic) [Compound 163, N-(4-Amino-2H-pyrazolo[4,3-c]pyridin-7-yl)-2-oxo-2-[rac-(2S,5R)-4-cyclobutyl-5-methyl-2-phenyl-piperazin-1-yl]acetamide], for which the figures for the IC50 in experiment [1], in experiment [2] and in experiment [3] were less than 100 nM, less than 5 nM and 5 to 50 nM, respectively. In addition, the “Hap1 MTAP intact/deleted ratio” value in experiment [2] is given as “C (an IC50 ratio of less than 15 fold)”.
For `C[C@H]1CN(C(=O)C(=O)Nc2cnc(N)c(C3CC3)c2)[C@H](c2ccc(F)cc2)CN1C(=O)OC(C)(C)C` (stereo in doubt) [Compound 146, tert-butyl 4-(2-((6-amino-5-cyclopropylpyridin-3-yl)amino)-2-oxoacetyl)-5-(4-fluorophenyl)-2-methylpiperazine-1-carboxylate], the 50% inhibitory concentration (IC50) in experiment [1] was more than 1000 nM. In addition, in experiment [2], the half-inhibitory concentration (IC50) is more than 50 nM, the 90% effect concentration (IC90) was more than 125 nM and the “Hap1 MTAP intact/deleted ratio” value is on record as “C (an IC50 ratio of less than 15 fold)”. In addition, the IC50 in experiment [3] is more than 50 nM.
As for `Cc1cc(NC(=O)C(=O)N2C[C@@H](C)N(C(=O)OC(C)(C)C)C[C@@H]2c2ccccc2)cnc1N` [Compound 25], the IC50 in experiment [1] is less than 100 nM; in experiment [2], less than 5 nM; in experiment [3], 5 to 50 nM. Also, in experiment [2], the IC90 is less than 75 nM. The “Hap1 MTAP intact/deleted ratio” value in experiment [2] is on record as “C (an IC50 ratio of less than 15 fold)”.
In the same order, the values of `Cc1cc(NC(=O)C(=O)N2C[C@@H](C)N(CC(C)C)C[C@@H]2c2ccc(F)cc2)cnc1N` [Compound 154, N-(6-amino-5-methyl-3-pyridyl)-2-[(2S,5R)-2-(4-fluorophenyl)-4-isobutyl-5-methyl-piperazin-1-yl]-2-oxo-acetamide] are more than 1000 nM, more than 50 nM, more than 50 nM, more than 125 nM and “C (an IC50 ratio of less than 15 fold)”.
In the same order, the values of `C[C@@H]1CN(C(=O)C(=O)Nc2cncc3cn[nH]c23)[C@@H](c2ccccc2)CN1C(=O)C1(C(F)(F)F)CC1` [Compound 100, 2-((2S,5R)-5-methyl-2-phenyl-4-(1-(trifluoromethyl)cyclopropanecarbonyl)piperazin-1-yl)-2-oxo-N-(1H-pyrazolo[4,3-c]pyridin-7-yl)acetamide] are less than 100 nM, 5 to 50 nM, more than 50 nM, more than 125 nM and “C (an IC50 ratio of less than 15 fold)”.
In the same order, the values of `CCc1cc(NC(=O)C(=O)N2C[C@@H](C)N(C(=O)C3(C)CC3)C[C@@H]2c2ccc(F)cc2)cnc1N` [Compound 60, N-(6-amino-5-ethylpyridin-3-yl)-2-((2S,5R)-2-(4-fluorophenyl)-5-methyl-4-(1-methylcyclopropanecarbonyl)piperazin-1-yl)-2-oxoacetamide] are less than 100 nM, less than 5 nM, 5 to 50 nM, less than 75 nM and “C (an IC50 ratio of less than 15 fold)”.
In experiment [1], `C[C@@H]1CN(C(=O)C(=O)Nc2cnc(N)c(C3CC3)c2)[C@@H](c2ccc(F)c(F)c2)CN1C(=O)C1(C)CC1` [Compound 59, N-(6-amino-5-cyclopropylpyridin-3-yl)-2-((2S,5R)-2-(3,4-difluorophenyl)-5-methyl-4-(1-methylcyclopropanecarbonyl)piperazin-1-yl)-2-oxoacetamide] registered a concentration for half-maximal inhibition (IC50) of less than 100 nM. For the same compound, in experiment [2], the half-maximal inhibitory concentration (IC50) was less than 5 nM, the 90% effect concentration (IC90) was less than 75 nM and the “Hap1 MTAP intact/deleted ratio” value was “B (an IC50 ratio greater than or equal to 15 fold but lower than 30 fold)”. Moreover, the IC50 in experiment [3] was more than 50 nM.
In the same order, the values of `C[C@@H]1CN(C(=O)C(=O)Nc2cncc3[nH]ncc23)[C@@H](c2ccccc2)CN1C(=O)C(C)(C)C` [Compound 55, 2-((2S,5R)-5-methyl-2-phenyl-4-pivaloylpiperazin-1-yl)-2-oxo-N-(1H-pyrazolo[3,4-c]pyridin-4-yl)acetamide] are less than 100 nM, 5 to 50 nM, 75 to 125 nM, “C (an IC50 ratio of less than 15 fold)” and more than 50 nM.
For `CCc1cc(NC(=O)C(=O)N2C[C@@H](C)N(C(=O)C3(C(F)(F)F)CC3)C[C@@H]2c2ccc(F)cc2)cnc1N` [Compound 116, N-(6-amino-5-ethylpyridin-3-yl)-2-((2S,5R)-2-(4-fluorophenyl)-5-methyl-4-(1-(trifluoromethyl)cyclopropanecarbonyl)piperazin-1-yl)-2-oxoacetamide], the values for the 50% inhibitory concentration (IC50) in experiment [1], in experiment [2] and in experiment [3] were less than 100 nM, less than 5 nM and more than 50 nM, respectively. In experiment [2], this compound registered an IC90 of less than 75 nM. Moreover, in experiment [2], the “Hap1 MTAP intact/deleted ratio” value was “A (an IC50 ratio greater than or equal to 30 fold)”.
In the same order, the values of `Cc1cc(NC(=O)C(=O)N2C[C@@H](C)N(C(=O)C(C)C)C[C@@H]2c2cccc(Cl)c2)cnc1N` [Compound 90, N-(6-amino-5-methylpyridin-3-yl)-2-((2S,5R)-2-(3-chlorophenyl)-4-isobutyryl-5-methylpiperazin-1-yl)-2-oxoacetamide] are less than 100 nM, 5 to 50 nM, more than 50 nM, more than 125 nM and “B (an IC50 ratio greater than or equal to 15 fold but lower than 30 fold)”.
In the same order, the values of `C[C@@H]1CN(C(=O)C(=O)Nc2cnc(N)c(C3CC3)c2)[C@@H](c2ccc(F)cc2)CN1C(=O)OC(C)(C)C` (stereo in doubt) [Compound 144, tert-butyl 4-(2-((6-amino-5-cyclopropylpyridin-3-yl)amino)-2-oxoacetyl)-5-(4-fluorophenyl)-2-methylpiperazine-1-carboxylate] are less than 100 nM, less than 5 nM, more than 50 nM, less than 75 nM and “B (an IC50 ratio greater than or equal to 15 fold but lower than 30 fold)”.
Regarding `Cc1cc(NC(=O)C(=O)N2C[C@@H](C)N(C(=O)C3(C)CC3)C[C@@H]2c2ccc(Cl)cc2)cnc1N` [Compound 65], the IC50 in experiment [1] was less than 100 nM. Further, in experiment [2], the IC50 is less than 5 nM, the IC90 is less than 75 nM and the “Hap1 MTAP intact/deleted ratio” value was “C (an IC50 ratio of less than 15 fold)”. Also, the IC50 in experiment [3] is 5 to 50 nM.
As to `C[C@@H]1CN(C(=O)C(=O)Nc2cncc3[nH]ncc23)[C@@H](c2ccccc2)CN1C(=O)C1(C)CC1` [Compound 147, 2-((2S,5R)-5-methyl-4-(1-methylcyclopropanecarbonyl)-2-phenylpiperazin-1-yl)-2-oxo-N-(1H-pyrazolo[3,4-c]pyridin-4-yl)acetamide], the results for the IC50 in experiment [1], in experiment [2] and in experiment [3] were 100 to 1000 nM, less than 5 nM and more than 50 nM, respectively. In experiment [2], this compound yielded a concentration for an effect of 90% (IC90) of more than 125 nM. Also, in experiment [2], the “Hap1 MTAP intact/deleted ratio” value was “A (an IC50 ratio greater than or equal to 30 fold)”.
In the case of `Cc1cc(NC(=O)C(=O)N2C[C@@H](C)N(C(=O)C3(C(F)(F)F)CC3)C[C@@H]2c2cc(Cl)cc(Cl)c2)cnc1N` [Compound 62, N-(6-amino-5-methylpyridin-3-yl)-2-((2S,5R)-2-(3,5-dichlorophenyl)-5-methyl-4-(1-(trifluoromethyl)cyclopropanecarbonyl)piperazin-1-yl)-2-oxoacetamide], the IC50 in experiment [1] was less than 100 nM; in experiment [2], 5 to 50 nM; in experiment [3], more than 50 nM. Moreover, the IC90 in experiment [2] fell in the range of 75 to 125 nM. The “Hap1 MTAP intact/deleted ratio” value in experiment [2] is reported as “A (an IC50 ratio greater than or equal to 30 fold)”.
